From ChEMBL document CHEMBL5543148, “Discovery of First-in-Class PROTAC Degraders of SARS-CoV-2 Main Protease” (J Med Chem, 2024)

Legend:
SARS-CoV-2 [1] = assay: Antiviral activity against SARS-CoV-2 harboring recombinant live-attenuated delta3678 mGFP infected in human A549-ACE2 cells measured after 48 hrs by RT-PCR analysis; format: functional, organism-based; conditions: Severe acute respiratory syndrome coronavirus 2, A549-ACE2, 48 h
SARS-CoV-2 [2] = assay: Antiviral activity against SARS-CoV-2 harboring NSP5 E166A mutant infected in human A549-ACE2 cells measured after 48 hrs by RT-PCR analysis; format: functional, organism-based, Severe acute respiratory syndrome coronavirus 2

SMILES: C[C@@H](OC(C)(C)C)[C@H](NC(=O)OCc1cccc(OCCCCCCOc2cccc3c2C(=O)N(C2CCC(=O)NC2=O)C3=O)c1)C(=O)N[C@@H](CC1CCCCC1)C(=O)N[C@H](C=O)C[C@@H]1CCNC1=O (some centres not stated)
- EC50 (SARS-CoV-2 [1]): 2200 nM
- EC50 (SARS-CoV-2 [2]): 460 nM
